ChEMBL document CHEMBL1146546, “Warangalone, the isoflavonoid anti-inflammatory principle of Erythrina addisoniae stem bark” (J Nat Prod, 2003)
Blank lines part the entries; values can stand above or below the compound they belong to.

Columns and labels:
Mus musculus [1] = test: Antiinflammatory activity against TPA-induced ear edema in Swiss mouse chronic dermatitis model assessed as inhibition of increase in ear weight at 0.25 mg/ear relative to control; assay type: functional
Mus musculus [2] = species: Mus musculus; test: Antiinflammatory activity against Swiss mouse chronic dermatitis model assessed as inhibition of TPA-induced tissue myeloperoxidase activity at 0.25 mg/ear applied twice daily for 4 days measured after 6 hrs relative to control; assay type: functional
Mus musculus [3] = test: Antiinflammatory activity against TPA-induced ear edema in Swiss mouse chronic dermatitis model assessed as inhibition of increase in ear weight; assay type: functional
[4] = Inhibition of calcium ionophore A-23187/calcium-stimulated LTB4 production in rat polymorphonuclear leukocytes; assay type: functional
Platelet = test: Inhibition of calcium ionophore A-23187/calcium-stimulated 12-hydroxyheptadecatrienoic acid production in human platelets; assay type: functional
[5] = Inhibition of PKC catalytic subunit
Mus musculus [6] = test: Antiinflammatory activity against Naja mossambica PLA2-induced Swiss mouse paw edema assessed as inhibition of paw volume at 5 mg/kg, ip administered before 30 mins of PLA2 challenge measured after 30 mins relative to control; assay type: functional; settings: 0.5 h, route intraperitoneal
Mus musculus [7] = test: Antiinflammatory activity against Naja mossambica PLA2-induced Swiss mouse paw edema assessed as inhibition of paw volume at 5 mg/kg, ip administered before 30 mins of PLA2 challenge measured after 60 mins relative to control; assay type: functional; settings: route intraperitoneal
Mus musculus [8] = test: Antiinflammatory activity against carrageenan-induced Swiss mouse paw edema assessed as inhibition of paw volume at 10 mg/kg, po administered 1 hr before carrageenan challenge measured after 5 hrs relative to control; assay type: functional
Mus musculus [9] = test: Antiinflammatory activity against TPA-induced ear edema Swiss mouse chronic dermatitis model assessed as inhibition of increase in ear weight at 0.5 mg/ear relative to control; assay type: functional
Mus musculus [10] = species: Mus musculus; test: Antiinflammatory activity against Swiss mouse chronic dermatitis model assessed as inhibition of TPA-induced tissue myeloperoxidase activity at 0.5 mg/ear applied twice daily for 4 days measured after 6 hrs relative to control; assay type: functional
Mus musculus [11] = test: Antiinflammatory activity against carrageenan-induced Swiss mouse paw edema assessed as inhibition of paw volume at 10 mg/kg, po administered 1 hr before carrageenan challenge measured after 1 hr relative to control; assay type: functional
Mus musculus [12] = test: Antiinflammatory activity against carrageenan-induced Swiss mouse paw edema assessed as inhibition of paw volume at 10 mg/kg, po administered 1 hr before carrageenan challenge measured after 3 hrs relative to control; assay type: functional

IC50 [5]: 3.5 µM
Compound: CC(C)=CCc1c2c(c(O)c3c(=O)c(-c4ccc(O)cc4)coc13)C=CC(C)(C)O2 [WARANGALONE]
inhibition (INH) (Mus musculus [1]): 78%
inhibition (INH) (Mus musculus [2]): 41%
ID50 (Mus musculus [3]): 0.54 µmol
inhibition (INH) [4]: <20%
inhibition (INH) (Platelet): <20%
inhibition in vivo at 5 mg/kg (Mus musculus [6]): 21%
inhibition in vivo at 5 mg/kg (Mus musculus [7]): 68%

Compound: COc1ccc2c(c1)c(CC(=O)O)c(C)n2C(=O)c1ccc(Cl)cc1 [INDOMETHACIN]
inhibition in vivo at 10 mg/kg (Mus musculus [8]): 31%
inhibition (INH) (Mus musculus [9]): 82%
inhibition (INH) (Mus musculus [10]): 36%
ID50 (Mus musculus [3]): 0.29 µmol
inhibition in vivo at 10 mg/kg (Mus musculus [11]): 14%
inhibition in vivo at 10 mg/kg (Mus musculus [12]): 60%

Compound: CN1CCC(=C2c3ccccc3C=Cc3ccccc32)CC1 [CYPROHEPTADINE]
inhibition in vivo at 5 mg/kg (Mus musculus [6]): 66%
inhibition in vivo at 5 mg/kg (Mus musculus [7]): 63%
